The values that follow come from ChEMBL document CHEMBL1143752, “Fatty acyl amides of endogenous tetrahydroisoquinolines are active at the recombinant human TRPV1 receptor” (Bioorg Med Chem, 2007).

Holding throughout (assay type): functional, cell-based
Assay [1] has as its target Transient receptor potential cation channel subfamily V member 1 (Homo sapiens) (UniProt Q8NER1). The experiment in a line: Agonist activity at human TRPV1 expressed HEK293 cells assessed as reduction of capsaicin-induced calcium mobilization at 1 uM. Also noted: scale not given: the % may be the effect or the level left. In general terms: A change in cytosolic calcium serves as a functional read-out for many receptors and channels.

For assay [2] the target is unchanged. Briefly: Agonist activity at human TRPV1 expressed HEK293 cells assessed as calcium mobilization at 12 uM.
Assay [3] has the same target. The experiment in a line: Agonist activity at human TRPV1 expressed HEK293 cells assessed as calcium mobilization at 10 uM.

Transient receptor potential cation channel subfamily V member 1 (Homo sapiens), sequence (Q8NER1 whole entry): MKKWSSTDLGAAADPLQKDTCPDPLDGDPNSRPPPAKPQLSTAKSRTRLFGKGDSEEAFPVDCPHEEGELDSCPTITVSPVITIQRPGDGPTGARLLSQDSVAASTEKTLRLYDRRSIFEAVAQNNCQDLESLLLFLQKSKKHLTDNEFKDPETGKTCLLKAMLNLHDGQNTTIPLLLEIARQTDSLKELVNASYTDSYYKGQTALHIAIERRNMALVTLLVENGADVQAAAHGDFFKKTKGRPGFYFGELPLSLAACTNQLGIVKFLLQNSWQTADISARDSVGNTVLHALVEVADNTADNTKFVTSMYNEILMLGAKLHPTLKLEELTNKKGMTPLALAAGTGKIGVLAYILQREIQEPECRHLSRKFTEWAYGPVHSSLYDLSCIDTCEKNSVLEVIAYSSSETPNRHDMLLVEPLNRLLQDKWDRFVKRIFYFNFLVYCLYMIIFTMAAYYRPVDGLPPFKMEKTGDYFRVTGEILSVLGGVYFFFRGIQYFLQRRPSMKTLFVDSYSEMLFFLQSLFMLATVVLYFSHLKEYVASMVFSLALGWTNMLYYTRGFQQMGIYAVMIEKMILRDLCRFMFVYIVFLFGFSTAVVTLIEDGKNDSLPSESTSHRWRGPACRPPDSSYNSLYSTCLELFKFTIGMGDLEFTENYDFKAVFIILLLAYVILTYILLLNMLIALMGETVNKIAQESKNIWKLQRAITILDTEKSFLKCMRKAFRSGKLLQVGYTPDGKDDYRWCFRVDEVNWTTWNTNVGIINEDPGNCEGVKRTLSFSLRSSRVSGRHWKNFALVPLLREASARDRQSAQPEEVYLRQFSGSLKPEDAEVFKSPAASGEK

Take `CC/C=C/C/C=C/C/C=C/C/C=C/C/C=C/C/C=C/CCC(=O)N1CCc2cc(OC)c(O)cc2C1C` (configuration not stated): the Activity stood at 5% in assay [1] and 14% in assay [2].

For the compound `CC/C=C/C/C=C/C/C=C/C/C=C/C/C=C/C/C=C/CCC(=O)N1CCc2cc(O)c(O)cc2C1C` (configuration not stated), the Activity in assay [3] worked out at 25%; in assay [1] it was 45%.

Regarding `CCCCC/C=C/C/C=C/CCCCCCCC(=O)N1CCc2cc(O)c(O)cc2C1C` (configuration not stated), the Activity was 36% in assay [3] and 35% in assay [1].

For the compound `CCCCC/C=C/C/C=C/CCCCCCCC(=O)N1CCc2cc(OC)c(O)cc2C1C` (configuration not stated), the Activity amounted to 11% in assay [3] and 25% in assay [1].

Regarding `CCCCC/C=C/C/C=C/C/C=C/C/C=C/CCCC(=O)N1CCc2cc(O)c(O)cc2C1C` (configuration not stated), the Activity in assay [3] is 55%; in assay [1], 40%.

As to `CCCCC/C=C/C/C=C/C/C=C/C/C=C/CCCC(=O)N1CCc2cc(OC)c(O)cc2C1C` (configuration not stated), the results for the Activity in assay [3] and in assay [1] were 18% and 35%, respectively.
